Assay type in all cases: functional, organism-based
Experiment [1] concerns Candida albicans. As to the kind of experiment: Antifungal activity against Candida albicans ATCC 90028 after 18 to 24 hrs.
Experiment [2] has as its system Cryptococcus neoformans. As to the kind of experiment: Antifungal activity against Cryptococcus neoformans ATCC 90113 after 68 to 72 hrs.
Experiment [3] relates to Aspergillus fumigatus. As to the kind of experiment: Antifungal activity against Aspergillus fumigatus ATCC 90906 after 68 to 72 hrs.
Experiment [4] deals with Staphylococcus aureus. Description: Antibacterial activity against methicillin-resistant Staphylococcus aureus ATCC 43300 after 18 to 24 hrs.
In experiment [5] the test system is Escherichia coli. As to the kind of experiment: Antibacterial activity against Escherichia coli ATCC 35218 at 20 ug/mL after 18 to 24 hrs.
Experiment [6] deals with Pseudomonas aeruginosa. Description: Antibacterial activity against Pseudomonas aeruginosa ATCC 27853 at 20 ug/mL after 18 to 24 hrs.
The test system of experiment [7] is Mycobacterium intracellulare. Description: Antibacterial activity against Mycobacterium intracellular ATCC 23068 at 20 ug/mL after 68 to 72 hrs.

The record followed here is ChEMBL document CHEMBL1140192, “Sorocenols G and H, anti-MRSA oxygen heterocyclic Diels-Alder-type adducts from Sorocea muriculata roots” (J Nat Prod, 2008).

SMILES strings stand for the structures. ≈ marks a conversion by molar mass, not a printed value. Calls of active or inactive are those of the source. The calls are words filed in the database; no cut-off is given here.

In experiment [1], `C[C@@H]1[C@H](O)[C@@H](C)/C=C/C=C/C=C/C=C/C=C/C=C/C=C/[C@H](O[C@@H]2O[C@H](C)[C@@H](O)[C@H](N)[C@@H]2O)C[C@@H]2O[C@](O)(C[C@@H](O)C[C@@H](O)[C@H](O)CC[C@@H](O)C[C@@H](O)CC(=O)O[C@H]1C)C[C@H](O)[C@H]2C(=O)O` [AMPHOTERICIN B] yielded an IC50 of 300 nM, an MFC of 1.4 µM (≈ 1.29 µg/mL) and an MIC of 0.7 µM (≈ 0.647 µg/mL). In experiment [2], the half-maximal inhibitory concentration (IC50) amounted to 900 nM, the minimum fungicidal concentration (MFC) was 2.5 µM (≈ 2.31 µg/mL) and the minimum inhibitory concentration (MIC) was 1.4 µM (≈ 1.29 µg/mL). In experiment [3], this compound returned an IC50 of 1600 nM, an MFC of 2.7 µM (≈ 2.5 µg/mL) and an MIC of 2.7 µM (≈ 2.5 µg/mL).
As for `O=C(O)c1cn(C2CC2)c2cc(N3CCNCC3)c(F)cc2c1=O` [CIPROFLOXACIN], in experiment [4], the result was inactive and 0.8 µM (≈ 0.265 µg/mL) was the least that counted as inhibitory (MIC).
In experiment [4], `CC1=C[C@@H]2c3c(O)cc(-c4cc5ccc(O)cc5o4)cc3O[C@]3(c4ccc(O)c5c4OC(C)(C)C=C5)Oc4cc(O)ccc4[C@H](C1)[C@@H]23` [SOROCENOL G] gave a concentration for half-maximal inhibition (IC50) of 1500 nM. The same compound returned an MBC in experiment [4] of 31.8 µM (≈ 20 µg/mL). Besides, in experiment [4], it took 4 µM (≈ 2.51 µg/mL) to inhibit growth (MIC). For the same compound, the outcome in experiment [1] and in experiment [2] was Active. For the same compound, the outcome in experiment [5], in experiment [6], in experiment [7] and in experiment [3] was inactive.
Regarding `CC(C)=CCc1c(O)ccc(C(=O)[C@H]2[C@H](c3c(O)cc(-c4cc5ccc(O)cc5o4)cc3O)C=C(C)C[C@H]2c2ccc(O)cc2O)c1O` [SOROCENOL H], the IC50 in experiment [4] came to 500 nM; in experiment [1], 5400 nM; in experiment [2], 5400 nM; in experiment [3] it was 10000 nM. The same compound returned a minimum bactericidal concentration (MBC) in experiment [4] of 30.8 µM (≈ 20 µg/mL). For the same compound, the minimal inhibitory concentration (MIC) in experiment [4] was found to be 1.9 µM (≈ 1.23 µg/mL); in experiment [1] it was 15.4 µM (≈ 9.99 µg/mL); in experiment [2], 7.7 µM (≈ 5 µg/mL); in experiment [3], 15.4 µM (≈ 9.99 µg/mL). Besides, the minimum fungicidal concentration (MFC) came to 30.8 µM (≈ 20 µg/mL) in experiment [1], 7.7 µM (≈ 5 µg/mL) in experiment [2] and 30.8 µM (≈ 20 µg/mL) in experiment [3]. The outcome in experiment [5], in experiment [6] and in experiment [7] was inactive.
